Assay results: PMC8922279, “Identification of β-Lactams Active against Mycobacterium tuberculosis by a Consortium of Pharmaceutical Companies and Academic Institutions” (ACS Infectious Diseases, 2022)
Read-outs that look alike come from different tables or passages of the source.

What was measured:
[1] = test system: Mtb H37Rv; experiment: MIC90 against replicating (R) Mtb H37Rv, with or without clavulanate; format: cell-based, Mycobacterium tuberculosis; settings: Table S4; for Mtb H37Rv R + CLAV (MIC90): clavulanate 4 μg/mL; for Mtb H37Rv R (MIC90): no clavulanate
[2] = test system: Mtb H37Rv; experiment: MIC90 against nonreplicating (NR, 4-stress) Mtb H37Rv, with or without clavulanate; format: cell-based, Mycobacterium tuberculosis; settings: 4-stress nonreplicating, Table S4; for Mtb H37Rv NR + CLAV (MIC90): clavulanate 4 μg/mL; for Mtb H37Rv NR (MIC90): no clavulanate
[3] = test system: E. coli; experiment: Microbial spectrum, E. coli; format: cell-based, Escherichia coli; settings: clavulanate 4 μg/mL; Table S4
[4] = test system: P. aeruginosa; experiment: Microbial spectrum, P. aeruginosa; format: cell-based, Pseudomonas aeruginosa; settings: clavulanate 4 μg/mL; Table S4
[5] = test system: S. aureus; experiment: Microbial spectrum, S. aureus; format: cell-based, Staphylococcus aureus; settings: clavulanate 4 μg/mL; Table S4
[6] = test system: C. albicans; experiment: Microbial spectrum, C. albicans; format: cell-based, Candida albicans; settings: no clavulanate; Table S4
[7] = test system: HepG2 cells; experiment: Cytotoxicity against HepG2 cells (CellTiter-Glo); format: cell-based, human; settings: Table S4
Protocol: Compounds were tested for cytotoxicity against HepG2 cells as previously described.[48],[69],[70] Briefly, cells were exposed to compounds for 48–72 h, and viability was measured using CellTiter-Glo (Promega).

[8] = test system: wild-type Mtb H37Rv; format: in vivo, 129sv DHP-1 knockout mice; settings: 50 mg/kg sc bid + clavulanate 100 mg/kg po bid, days 9-15, lungs day 16; untreated day 16 mean 9.1
[9] = test system: Caco-2 cells
[10] = uninfected DHP-1 mice
[11] = female, 129sv DHP-1 knockout, mouse, in vivo
[12] = in vivo; settings: female, CD-1, mouse
[13] = in vivo; settings: DHP-1 knockout, mouse, sc
[14] = in vivo; settings: female, 129sv DHP-1 knockout, mouse, sc, 50 mg/kg
[15] = physchem; settings: simulated gi fluid, pH 6.5, FaSSIF Stability, % remaining
[16] = physchem; settings: simulated gi fluid, pH 1.2
[17] = in vitro; settings: male, CD-1, mouse, plasma, Plasma stability % Remaining
[18] = in vitro; settings: SD, rat, plasma, Plasma stability % Remaining
[19] = in vitro; settings: beagle, dog, plasma
[20] = in vitro; settings: monkey, plasma
[21] = in vitro; settings: human, plasma, Plasma stability % Remaining
[22] = in vitro; settings: human; for Papp A→B at 120 min, 3 μM / Papp B→A at 120 min, 3 μM: Caco-2, pH 7.4
[23] = in vitro; settings: cynomolgus monkey, plasma, pH 7.4
[24] = in vitro; settings: beagle, dog, plasma, pH 7.4
[25] = in vitro; settings: CD-1, mouse, plasma, pH 7.4, % bound to plasma
[26] = in vitro; settings: SD, rat, plasma, pH 7.4, % bound to plasma
[27] = in vitro; settings: human, plasma, pH 7.4, % bound to plasma
[28] = Caco-2, pH 7.4, Caco-2 Mean Recovery % A to B
[29] = Caco-2, pH 7.4, Caco-2 Mean Recovery % B to A

O=C(Cc1cccs1)N[C@@H]1C(=O)N2C(C(=O)O)=C(CSc3cccc[n+]3[O-])CS[C@H]12 [TBBL-0000001]
Mtb H37Rv R + CLAV (MIC90) [1]: 1.7 µM
Mtb H37Rv R (MIC90) [1]: 3 µM
Mtb H37Rv NR + CLAV (MIC90) [2]: 2.2 µM
Mtb H37Rv NR (MIC90) [2]: 1.8 µM
E.coli R + CLAV (MIC90) [3]: 26.9 µM
P.aeruginosa R + CLAV (MIC90) [4]: > 100 µM
S.aureus R + CLAV (MIC90) [5]: 0.6 µM
C.albicans R (MIC90) [6]: > 100 µM
HepG2 LD50 [7]: 67.5 µM
Log10 CFU per mouse (lungs), Mean [8]: 8.8 Log10 CFU
Caco-2 Rank Papp [9]: Low
Comments (tolerability) ([10]; 300 mg/kg sc): Recovered at t= 8h
Tlast ([10]; 300 mg/kg sc): 2.0 to 4.0 h
Tlast [11]: 3.0 h
AUC(0-t) ([12]; iv, 5 mg/kg): 5590 ng·h/mL
Vd ([12]; iv, 5 mg/kg): 0.32 L/kg
clearance ([12]; iv, 5 mg/kg): 7.4 mL/min/kg
half-life ([12]; iv, 5 mg/kg): 30 min
k el ([12]; iv, 5 mg/kg): 0.000389 s⁻¹
AUC(0-t) ([12]; po, 25 mg/kg): 111 ng·h/mL
bioavailability ([12]; po, 25 mg/kg): 0.19%
AUC(0-t) ([13]; 300 mg/kg): 43000 ± 1680 ng·h/mL
Cmax ([13]; 300 mg/kg): 29800 ± 7140 ng/mL
Tmax ([13]; 300 mg/kg): 60 min
AUC(0-t) [14]: 38100 ng·h/mL
Cmax [14]: 27800 ng/mL
Tmax [14]: 60 min
remaining at 24 h, 10 μM [15]: 114%
remaining at 1 h, 10 μM [16]: 102%
remaining at 24 h, 10 μM [16]: 116%
remaining at 2 h, 2 μM [17]: 79.6%
remaining at 2 h, 2 μM [18]: 80.6%
remaining at 2 h, 2 μM [19]: 54.7%
remaining at 2 h, 2 μM [20]: 117%
remaining at 2 h, 2 μM [21]: 77.3%
Papp A→B at 120 min, 3 μM [22]: < 0.04 ×10⁻⁶ cm/s
Papp B→A at 120 min, 3 μM [22]: < 0.03 ×10⁻⁶ cm/s
recovery at 120 min, 3 μM [22, 28]: < 93.1%
recovery at 120 min, 3 μM [22, 29]: < 99.8%
fraction unbound at 4 h, 2 μM [23]: 0.166
fraction unbound at 4 h, 2 μM [24]: 0.529
fraction unbound at 4 h, 2 μM [25]: 0.374
fraction unbound at 4 h, 2 μM [26]: 0.369
fraction unbound at 4 h, 2 μM [27]: 0.22

O=C(O)C1=C(CSc2cccc[n+]2[O-])CS[C@@H]2[C@H](NC(=O)/C(=N\Oc3ccccc3)c3ccco3)C(=O)N12 [TBBL-0000005]
Mtb H37Rv R + CLAV (MIC90) [1]: 2.7 µM
Mtb H37Rv R (MIC90) [1]: 2.9 µM
Mtb H37Rv NR + CLAV (MIC90) [2]: 1.5 µM
Mtb H37Rv NR (MIC90) [2]: 1.8 µM
E.coli R + CLAV (MIC90) [3]: > 100 µM
P.aeruginosa R + CLAV (MIC90) [4]: > 100 µM
S.aureus R + CLAV (MIC90) [5]: 0.8 µM
C.albicans R (MIC90) [6]: > 100 µM
HepG2 LD50 [7]: 88.7 µM
Log10 CFU per mouse (lungs), Mean [8]: 8.9 Log10 CFU
Caco-2 Rank Papp [9]: Low
Comments (tolerability) ([10]; 50 mg/kg sc): No side effects
Tlast ([10]; 50 mg/kg sc): 2.0 to 4.0 h
Tlast [11]: 6.0 h
AUC(0-t) ([12]; iv, 5 mg/kg): 3330 ng·h/mL
Vd ([12]; iv, 5 mg/kg): 0.23 L/kg
clearance ([12]; iv, 5 mg/kg): 5 mL/min/kg
half-life ([12]; iv, 5 mg/kg): 32.4 min
k el ([12]; iv, 5 mg/kg): 0.000356 s⁻¹
AUC(0-t) ([12]; po, 25 mg/kg): 97 ng·h/mL
bioavailability ([12]; po, 25 mg/kg): 0.11%
AUC(0-t) ([13]; 50 mg/kg): 18200 ± 7180 ng·h/mL
Cmax ([13]; 50 mg/kg): 26600 ± 10000 ng/mL
Tmax ([13]; 50 mg/kg): 15 to 30 min
AUC(0-t) [14]: 7920 ng·h/mL
Cmax [14]: 4130 ng/mL
Tmax [14]: 30 min
remaining at 6 h, 10 μM ([15]; 6h): 98.7%
remaining at 24 h, 10 μM [15]: 98.5%
remaining at 1 h, 10 μM [16]: 120%
remaining at 24 h, 10 μM [16]: 76.6%
remaining at 2 h, 2 μM [17]: 60.6%
remaining at 2 h, 2 μM [18]: 35.2%
remaining at 2 h, 2 μM [19]: 51.3%
remaining at 2 h, 2 μM [20]: 108%
remaining at 2 h, 2 μM [21]: 73.7%
Papp A→B at 120 min, 3 μM [22]: < 0.33 ×10⁻⁶ cm/s
Papp B→A at 120 min, 3 μM [22]: < 0.28 ×10⁻⁶ cm/s
recovery at 120 min, 3 μM [22, 28]: < 88.9%
recovery at 120 min, 3 μM [22, 29]: < 89.8%
fraction unbound at 4 h, 2 μM [23]: 0.06
fraction unbound at 4 h, 2 μM [24]: 0.186
fraction unbound at 4 h, 2 μM [25]: 0.06
fraction unbound at 4 h, 2 μM [26]: 0.121
fraction unbound at 4 h, 2 μM [27]: 0.129
